The values below come from US20110224197A1, “PYRIMIDINES AND PYRIDINES USEFUL AS INHIBITORS OF PROTEIN KINASES” (Vertex Pharmaceuticals Incorporated, priority 2008, published 2011).

The subject of experiment [1] is Middle Cerebral Artery Occlusion in adult male Wistar rats. The experiment is described as follows: Post Stroke Recovery Model II (MCA electrocoagulation, behavioral tests). It is filed as in vivo, rat. From the text: Adult male Wistar rats are pre-trained on a battery of behavioral tests including: tray reach, gridwalk, forelimb asymmetry (cylinder bracing), forelimb inhibition (swim test) (see below for detailed description of tests). Following pre-stroke behavioral assessment, the rats received surgery, during which a stroke is induced. The rats are pseudo-randomly divided into 5 equal groups (n=12) ensuring an equal number of right and left strokes within each treatment group. The first group receives sham surgery with vehicle as treatment. Administration of the test compound and vehicle (dose, route, timing) is determined by the sponsor. The core body temperature is maintained at 37° C. (+/−1°).
Following surgery, all animals are behaviorally assessed 1, 7, and 14 d post-stroke. At the conclusion of behavioral assessment, all rats undergo an MRI to determine infarct volume. Group behavioral performance and stroke volume are compared between groups using one way analysis of variance to determine therapeutic benefit of the compound in rate and extent of recovery of function following MCAO stroke.
Each animal is weighed (average weights were 340 g) and then anesthetized with isoflurane (4% isoflurane carried on 21/min medical grade oxygen to induce surgical plane and then 2% with 2 l/min oxygen to maintain a surgical plane). Following induction of anesthesia each rat is individually marked with an ear-punch and administered a subcutaneous dose of buprenorphine (0.025 mg/kg). Rectal temperature is monitored and maintained at 37° C.+/−1° C. for the duration of the surgery and until the rat is awake and mobile (approximately 3 hr).
The rat is then placed into a stereotaxic apparatus positioned such that the lateral aspect of the head was facing up. The skin between the eye […] and ear is shaved and washed with surgical antiseptic scrub. A vertical incision is made midway between the right orbit and external auditory canal. The underlying temporalis muscle is incised, detached from the skull and retracted with care to preserve the facial nerve. Two sutures hold the temporal muscle away from the lateral aspect of the skull. A craniotomy is performed from the posterior zygoma and along the temporal ridge of the cranium extending ventrally to expose the middle cerebral artery (MCA) and olfactory tract. The dura is opened, and the base of the MCA and the anterior portion of the first branch is electrocoagulated ventral to the olfactory tract, resulting in infarction of the right dorsolateral cerebral cortex.
Time at which stroke occurred is noted upon completion of the electrocoagulation of the MCA. Once bleeding is controlled, the temporal muscle is replaced and the skin sutured. The rat is then removed from the stereotaxic apparatus and moved to the recovery room. A second subcutaneous dose of buprenorphine (0.025 mg/kg) is administered along with 2 cc of Ringers solution. Water, wet rat chow mash, and a warming blanket under 1/2 the cage is made available while in the recovery room. Once the rat is awake and seen to be eating and drinking, it is moved back into its cage in the animal colony.
Forepaw use is measured with a procedure that is adapted from the method devised by Whishaw, O'Connor, and Dunnett (1986). Each animal is food-restricted such that feeding time occurs after testing each day. The animals are placed in test cages (10×18×10 cm high) with floors and fronts constructed of 2-mm bars, 9 mm apart edge to edge. […]

In the next experiment the test system is β-catenin. The experiment is described as follows: β-catenin in brain, Post Stroke Model II. Type of experiment: in vivo, rat. The settings on record: all doses. As for the experimental part:
To track the activity of Compound I-37 in the CNS of rats subjected to MCAO, brains were removed and protein lysate was obtained (as described herein) from both vehicle treated and compound treated animals at the termination of the study. Lysates were analyzed by Western blot and probed for GSK-3α/β pTYR levels.
Protein lysate is obtained from the brains of all vehicle and compound-treated animals and is processed for biomarker analysis of GSK3α/β pTYR and β-catenin by Western blot assay to ensure compound activity on the target.

The structures appear in SMILES notation.

As for `Cc1nc(-c2ccccc2Cl)nc(Nc2n[nH]c3ncc(F)cc23)c1C` [Compound I-37, N-(2-(2-chlorophenyl)-5,6-dimethylpyrhnidin-4-yl)-5-fluoro-1H-pyrazolo[3,4-b]pyridin-3-amine], in experiment [1] (7 and 14 days after stroke), the “Forelimb inhibition (swimming test) deficit” value is recorded as “significantly ameliorated this deficit”, the Gridwalk deficit entry is reported as “significantly ameliorated this deficit” and the “Tray reaching deficit compared with vehicle treatment” value is listed as “significantly ameliorated this deficit”. In addition, the “Forepaw asymmetry (cylinder test) deficit” value in experiment [1] (low dose, 14 days after stroke) is “significantly ameliorated this deficit”. Moreover, the Adhesive removal test entry in experiment [1] (rat, in vivo) is “did not show significant effect”. Also, the “induction of β-catenin” value in the experiment with β-catenin is on record as “no induction”.
